The values below come from ChEMBL document CHEMBL4229447, “Synthesis and evaluation of thiomannosides, potent and orally active FimH inhibitors” (Bioorg Med Chem Lett, 2018).

The target of series [1] is Type 1 fimbrin D-mannose specific adhesin (Escherichia coli K-12) (UniProt P08191). As to the kind of experiment: Inhibition of Escherichia coli UTI89 FimH assessed as reduction in […] guinea pig erythrocyte hemagglutination titer.
Series [2] can be described thus: Solubility of the compound in pH 6.8 JP2 buffer. It is filed as physicochemical.
Series [3] can be described thus: Permeability of the compound by PAMPA. In kind it is ADME. The settings on record: read-out: permeability.
Series [4] can be described thus: Lipophilicity, log D of the compound at pH 7.4. In kind it is physicochemical. To be noted: buffer.
The nature of series [5]: Metabolic stability in mouse liver microsomes after 30 mins. To be noted: read-out: Stability. It is filed as ADME, microsome.
The nature of series [6]: Oral bioavailability in mouse at 10 mg/kg. It is filed as ADME, organism-based. The settings on record: in vivo.
The nature of series [7]: Drug excretion in mouse urine at 10 mg/kg, po or 2 mg/kg, iv. In kind it is ADME, organism-based. The settings on record: read-out: Drug excretion.
Series [8] in a line: Mechanism based inactivation of CYP450 (unknown origin). In kind it is ADME. The settings on record: human.
Series [9] has as its system Escherichia coli. As to the kind of experiment: Antibiofilm activity against Escherichia coli UTI89. It is filed as functional, organism-based.
The subject of another series is Mus musculus. As to the kind of experiment: Time at which simulated urine concentration stays above its HAI titer in mouse at 1 to 100 mg/kg, po. It is filed as ADME, organism-based. To be noted: in vivo.
Series [10] concerns Escherichia coli. As to the kind of experiment: Antibacterial activity against Escherichia coli UTI89 in mouse prophylactic UTI model assessed as reduction in bacterial count in urinary bladder at 1 to 100 mg/kg, po administered 30 mins prior to infection measured at 2 and 24 hrs post infection. It is filed as functional, organism-based.
In series [11] the test system is Escherichia coli. Briefly: Antibiofilm activity against Escherichia coli UTI89 preformed biofilms. In kind it is functional, organism-based.
The next series deals with hERG (KCNH2) (Homo sapiens, UniProt Q12809). Briefly: Inhibition of human ERG at 100 uM relative to control.

Converted amounts (≈) assume the structure as drawn. The source made the active and inactive calls. The rule behind the calls is not given here. Where only a bound is given, the exact number is not on record here.

Sequence of Type 1 fimbrin D-mannose specific adhesin (Escherichia coli K-12) (P08191 whole entry): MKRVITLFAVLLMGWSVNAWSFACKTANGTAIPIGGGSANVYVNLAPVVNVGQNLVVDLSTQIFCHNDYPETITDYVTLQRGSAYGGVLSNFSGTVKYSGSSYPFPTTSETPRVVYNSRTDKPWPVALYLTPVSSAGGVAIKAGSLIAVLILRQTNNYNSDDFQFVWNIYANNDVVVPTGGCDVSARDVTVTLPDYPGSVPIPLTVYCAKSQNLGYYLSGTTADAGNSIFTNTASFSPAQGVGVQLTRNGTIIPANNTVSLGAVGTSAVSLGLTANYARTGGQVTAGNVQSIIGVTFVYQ
Sequence of hERG (KCNH2) (Q12809 whole entry): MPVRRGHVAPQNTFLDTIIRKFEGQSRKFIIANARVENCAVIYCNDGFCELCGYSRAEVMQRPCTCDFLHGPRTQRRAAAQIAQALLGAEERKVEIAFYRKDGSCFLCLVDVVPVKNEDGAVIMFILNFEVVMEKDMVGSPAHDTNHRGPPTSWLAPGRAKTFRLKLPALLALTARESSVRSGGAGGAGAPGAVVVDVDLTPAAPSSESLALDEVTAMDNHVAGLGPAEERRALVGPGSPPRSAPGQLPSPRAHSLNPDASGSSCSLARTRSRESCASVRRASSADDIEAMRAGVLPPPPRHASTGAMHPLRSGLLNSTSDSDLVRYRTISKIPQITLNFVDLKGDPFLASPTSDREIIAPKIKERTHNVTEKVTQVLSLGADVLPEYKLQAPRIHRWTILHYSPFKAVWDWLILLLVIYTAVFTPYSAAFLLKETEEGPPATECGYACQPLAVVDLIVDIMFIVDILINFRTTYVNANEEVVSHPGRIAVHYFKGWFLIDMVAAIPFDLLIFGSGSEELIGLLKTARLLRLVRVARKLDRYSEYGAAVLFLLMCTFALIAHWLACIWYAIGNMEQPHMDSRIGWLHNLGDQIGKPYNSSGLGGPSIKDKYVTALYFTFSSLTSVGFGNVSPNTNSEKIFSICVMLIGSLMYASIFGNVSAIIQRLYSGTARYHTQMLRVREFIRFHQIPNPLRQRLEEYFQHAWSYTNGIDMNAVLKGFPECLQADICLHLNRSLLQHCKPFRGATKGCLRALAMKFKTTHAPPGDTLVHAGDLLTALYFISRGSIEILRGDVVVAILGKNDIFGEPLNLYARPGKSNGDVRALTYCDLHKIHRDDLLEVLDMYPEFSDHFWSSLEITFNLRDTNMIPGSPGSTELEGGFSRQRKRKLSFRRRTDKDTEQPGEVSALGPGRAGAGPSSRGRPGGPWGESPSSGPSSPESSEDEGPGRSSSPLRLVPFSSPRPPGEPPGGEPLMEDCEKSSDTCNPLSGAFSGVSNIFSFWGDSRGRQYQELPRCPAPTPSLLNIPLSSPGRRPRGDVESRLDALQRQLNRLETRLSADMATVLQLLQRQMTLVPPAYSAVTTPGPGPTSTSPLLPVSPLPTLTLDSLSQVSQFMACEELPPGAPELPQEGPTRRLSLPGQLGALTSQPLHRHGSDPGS

As for `Cc1cc(-c2ccc(=O)n(C)c2)ccc1S[C@H]1O[C@H](CO)[C@@H](O)[C@H](O)[C@@H]1O`, the EC90 in series [1] stood at 1250 nM. The compound further gave a solubility in series [2] of 719 µg/mL (≈ 1830 µM). For the same compound, in series [3], the Papp is no more than 12 ×10⁻⁶ cm/s. The same compound had a logD in series [4] of 0.3. Besides, the remaining at 0.5 h in series [5] amounted to 72%.
For `Cc1cc(-c2ccc(=O)n(CC(C)C)c2)ccc1S[C@H]1O[C@H](CO)[C@@H](O)[C@H](O)[C@@H]1O`, the EC90 in series [1] amounted to 2500 nM. In [2], this compound registered a solubility of 863 µg/mL (≈ 1980 µM). Moreover, in [3], the Papp is no more than 12 ×10⁻⁶ cm/s. Besides, the logD in series [4] is 1.5. In addition, the remaining at 0.5 h in series [5] worked out at 95%. Also, the bioavailability in [6] was found to be 1%. In addition, in [7], the dose excreted turned out to be 8.1%.
`Cc1cc(-c2ccc(=O)n(CC(C)(C)O)c2)ccc1S[C@H]1O[C@H](CO)[C@@H](O)[C@H](O)[C@@H]1O`: the EC90 in series [1] was found to be 1250 nM. This compound gave a solubility in [2] of 729 µg/mL (≈ 1610 µM). The Papp in series [3] was no more than 12 ×10⁻⁶ cm/s. In addition, the pH-dependent lipophilicity (logD) in [4] worked out at 0.5. Also, in series [5], the remaining at 0.5 h came out at 97%. In series [6], the bioavailability stood at 0%. Moreover, the dose excreted in [7] turned out to be 5.3%.
As to `Cc1cc(-c2ccc(N3CCC3)nc2)ccc1S[C@H]1O[C@H](CO)[C@@H](O)[C@H](O)[C@@H]1O`, in series [1], the EC90 turned out to be 1250 nM. In [2], the concentration in solution (solubility) was 217 µg/mL (≈ 518 µM). Besides, the logD in [4] is 2.1. In [5], the remaining at 0.5 h worked out at 91%. This compound registered a bioavailability in series [6] of 14%. Besides, the dose excreted in series [7] worked out at 7%.
Regarding `CCn1cc(-c2ccc(S[C@H]3O[C@H](CO)[C@@H](O)[C@H](O)[C@@H]3O)c(C)c2)ccc1=O`, the EC90 in series [1] came out at 2500 nM. In [2], this compound registered a solubility of 668 µg/mL (≈ 1640 µM). The Papp in series [3] was no more than 12 ×10⁻⁶ cm/s. Besides, the logD in [4] was 0.7. Besides, in series [5], the remaining at 0.5 h is 100%.
Turning to `COc1ccc(-c2ccc(S[C@H]3O[C@H](CO)[C@@H](O)[C@H](O)[C@@H]3O)c(C)c2)cn1`, the EC90 in series [1] amounted to 310 nM. In [8], the Activity result was “Not Active”. Besides, the solubility in series [2] amounted to 663 µg/mL (≈ 1690 µM). The results for the IC50 with Escherichia coli [9] and in the series with Escherichia coli [11] were 0.3 µg/mL (≈ 0.762 µM) and 0.56 µg/mL (≈ 1.42 µM), respectively. For the same compound, in the series on Mus musculus, the Time entry is “<= 24 hr”. Further, the result with Escherichia coli [10] was Active. The Papp in series [3] was 12 to 30 ×10⁻⁶ cm/s. Also, the pH-dependent lipophilicity (logD) in series [4] is 2.1. In addition, the remaining at 0.5 h in series [5] stood at 100%. This compound also returned an inhibition at 100 µM against hERG (KCNH2) of 10.8%. Besides, in series [6], the bioavailability was 86%. In addition, in series [7], the dose excreted was 2.8%.
Regarding `Cc1cc(-c2ccc(=O)n(-c3ccccc3)c2)ccc1S[C@H]1O[C@H](CO)[C@@H](O)[C@H](O)[C@@H]1O`, the EC90 in series [1] was 1250 nM. For the same compound, the concentration in solution in series [2] (solubility) was 142 µg/mL (≈ 312 µM). In series [3], the Papp was no more than 12 ×10⁻⁶ cm/s. Further, the logD in series [4] was 1.2. Besides, the remaining at 0.5 h in series [5] came out at 93%. The compound further had a bioavailability in [6] of 15%. Further, the dose excreted in [7] came to 24%.
In the case of `CCCCn1cc(-c2ccc(S[C@H]3O[C@H](CO)[C@@H](O)[C@H](O)[C@@H]3O)c(C)c2)ccc1=O`, the EC90 in [1] was 600 nM. In addition, in series [2], the solubility came out at 740 µg/mL (≈ 1700 µM). For the same compound, the Papp in series [3] is no more than 12 ×10⁻⁶ cm/s. In series [4], this compound registered a logD of 1.7. Besides, in series [5], the remaining at 0.5 h worked out at 95%. This compound yielded a bioavailability in series [6] of 3%. In series [7], the dose excreted came to 7%.
With `CSc1ccc(-c2ccc(S[C@H]3O[C@H](CO)[C@@H](O)[C@H](O)[C@@H]3O)c(C)c2)cn1`, the concentration for an effect of 90% (EC90) in [1] is 600 nM. This compound registered a solubility in series [2] of 150 µg/mL (≈ 366 µM). Further, in series [3], the Papp was no more than 12 ×10⁻⁶ cm/s. This compound also registered a pH-dependent lipophilicity (logD) in [4] of 2.3. Further, the remaining at 0.5 h in [5] stood at 61%. In addition, in series [6], the bioavailability was 23%. Moreover, in [7], the dose excreted was found to be 11.7%.
With `CCCCn1ccc(-c2ccc(S[C@H]3O[C@H](CO)[C@@H](O)[C@H](O)[C@@H]3O)c(C)c2)cc1=O`, the EC90 in series [1] was 600 nM. Besides, the solubility in series [2] was found to be 582 µg/mL (≈ 1340 µM). The Papp in series [3] was no more than 12 ×10⁻⁶ cm/s. The pH-dependent lipophilicity (logD) in series [4] was 1.8. The remaining at 0.5 h in series [5] turned out to be 60%. This compound displayed a bioavailability in series [6] of 1%.
